Where a name gives a salt, the structure may show the parent alone.
The molecules below were run on Acinetobacter baumannii ATCC17978 (assay: Antimicrobial susceptibility testing: 90% growth inhibitory concentration (IC90) determination, Iso-Sensitest broth). Settings: 90% growth inhibitory concentration, Acinetobacter baumannii ATCC17978, Iso-Sensitest broth, OD 600 nm over 16 h; read-out: ATCC17978 IC90.
Type: cell-based
In short: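 A. baumannii ATCC17978 grown in Iso-Sensitest broth across 10 compound concentrations at 35±2 °C.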
For `Cc1cc(Nc2nccn3c(-c4ccc(OCC#N)c(F)c4F)cnc23)ccc1C(=O)N1CCC(C(=O)N2CCNC[C@@H]2CO)CC1` [Example 497, 2-[2,3-difluoro-4-[8-[4-[4-[(2R)-2-(hydroxymethyl)piperazine-1-carbonyl]piperidine-1-carbonyl]-3-methylanilino]imidazo[1,2-a]pyrazin-3-yl]phenoxy]acetonitrile; for-mic acid], the IC90 was 330 nM.
`Cc1cc(Nc2nccn3c(-c4ccc(OCC#N)c(F)c4F)cnc23)ccc1C(=O)N1CCN(C(=O)C2CNC2)CC1` [Example 504, 2-[4-[8-[4-[4-(azetidine-3-carbonyl)piperazine-1-carbonyl]-3-methylanilino]imidazo[1,2-a]pyrazin-3-yl]-2,3-difluorophenoxy]acetonitrile; formic acid] gave an IC90 of 490 nM.
Molecule `CCc1cc(Nc2nccn3c(-c4ccc(OCC#N)c(F)c4F)cnc23)ccc1C(=O)N1CCN(C(=O)[C@@H]2C[C@@H](O)CN2)CC1` [Example 510, 2-[4-[8-[3-ethyl-4-[4-[(2S,4R)-4-hydroxypyrrolidine-2-carbonyl]piperazine-1-carbonyl]annilino]imidazo[1,2-a]pyrazin-3-yl]-2,3-difluorophenoxy]acetonitrile; formic acid] has an IC90 of 550 nM.

Same assay, conditions: Acinetobacter baumannii, ATCC17978, 16 h, read-out: ATCC17978 IC90, 90% growth inhibitory concentration, Acinetobacter baumannii ATCC17978, Iso-Sensitest broth, OD 600 nm over 16 h
With `Cc1cc(Nc2nccn3c(-c4ccc(OC(F)F)cc4)cnc23)ccc1C(=O)N1CCN(C(=O)N2CCO[C@H](CN)C2)CC1` [Example 496, [4-[(2R)-2-(aminomethyl)morpholine-4-carbonyl]piperazin-1-yl]-[4-[[3-[4-(difluoromethoxy)phenyl]imi-dazo[1,2-a]pyrazin-8-yl]amino]-2-methylphenyl]methanone; for-mic acid] the IC90 was 330 nM.
For `Cc1cc(Nc2nccn3c(-c4ccc(OCC#N)c(F)c4F)cnc23)ccc1C(=O)N1CCC(C(=O)OC[C@H]2CNCCN2)CC1` [Example 499, formic acid; [(2R)-piperazin-2-yl]methyl 1-[4-[[3-[4-(cyanomethoxy)-2,3-difluorophenyl]imidazo[1,2-a]pyrazin-8-yl]amino]-2-methylbenzoyl]piperidine-4-carboxylate], the IC90 was 360 nM.
In the case of `Cc1cc(Nc2nccn3c(-c4ccc(OC(F)F)cc4)cnc23)ccc1C(=O)N1CCN(C(=O)N2CCNC(CN)C2)CC1` (stereo not drawn) [Example 500, [4-[3-(aminomethyl)piperazine-1-carbonyl]piperazin-1-yl]-[4-[[3-[4-(difluoromethoxy)phenyl]imi-dazo[1,2-a]pyrazin-8-yl]amino]-2-methylphenyl]methanone; for-mic acid], the IC90 is reported as 390 nM.
With `Cc1cc(Nc2nccn3c(-c4ccc(OC(F)F)cc4)cnc23)ccc1C(=O)N1CCN(C(=O)C2C=CNCC2)CC1` (stereo not drawn) [Example 501, [4-[[3-[4-(difluoromethoxy)phenyl]imi-dazo[1,2-a]pyrazin-8-yl]amino]-2-methylphenyl]-[4-(1,2,3,4-tetrahydropyridine-4-carbonyl)piperazin-1-yl]methanone; hydrochloride] the IC90 was 410 nM.
For `Cc1cc(Nc2nccn3c(-c4ccc(OC(F)F)cc4)cnc23)ccc1C(=O)N1CCN(C(=O)C2CCNCC2F)CC1` (stereo not drawn) [Example 502, [4-[[3-[4-(difluoromethoxy)phenyl]imi-dazo[1,2-a]pyrazin-8-yl]amino]-2-methylphenyl]-[4-(3-fluoropiperidine-4-carbonyl)piperazin-1-yl]methanone; hydrochloride], the IC90 was 470 nM.
`Cc1cc(Nc2nccn3c(-c4ccc(OC(F)F)cc4)cnc23)ccc1C(=O)N1CCN(C(=O)[C@@H]2CCNC[C@H]2O)CC1` [Example 503, [4-[[3-[4-(difluoromethoxy)phenyl]imi-dazo[1,2-a]pyrazin-8-yl]amino]-2-methylphenyl]-[4-[(3S,4R)-3-hydroxypiperidine-4-carbonyl]piperazin-1-yl]methanone] gave an IC90 of 470 nM.
Work on `Cc1cc(Nc2nccn3c(-c4ccc(OC(F)F)cc4)cnc23)ccc1C(=O)N1CCN(C(=O)N2CCNCC2CO)CC1` (stereo not drawn) [Example 505, [4-[[3-[4-(difluoromethoxy)phenyl]imi-dazo[1,2-a]pyrazin-8-yl]amino]-2-methylphenyl]-[4-[2-(hydroxymethyl)piperazine-1-carbonyl]piperazin-1-yl]methanone] yielded an IC90 of 500 nM.
With `Cc1cc(Nc2nccn3c(-c4ccc(OC(F)F)cc4)cnc23)ccc1C(=O)N1CCN(C(=O)C2(C)CCNCC2)CC1` [Example 506, [4-[[3-[4-(difluoromethoxy)phenyl]imi-dazo[1,2-a]pyrazin-8-yl]amino]-2-methylphenyl]-[4-(4-methylpiperidine-4-carbonyl)piperazin-1-yl]methanone; hydrochloride] the IC90 was 510 nM.
`Cc1cc(Nc2nccn3c(-c4ccc(OC(F)F)cc4)cnc23)ccc1C(=O)N1CCN(C(=O)[C@H]2CCNC[C@@H]2O)CC1` [Example 507, [4-[[3-[4-(difluoromethoxy)phenyl]imi-dazo[1,2-a]pyrazin-8-yl]amino]-2-methylphenyl]-[4-[(3R,4S)-3-hydroxypiperidine-4-carbonyl]piperazin-1-yl]methanone] was tested, and the IC90 was 510 nM.
For `Cc1cc(Nc2nccn3c(-c4ccc(OC(F)F)cc4)cnc23)ccc1C(=O)N1CCN(C(=O)[C@H]2CNCCN2)CC1` [Example 508, [4-[[3-[4-(difluoromethoxy)phenyl]imi-dazo[1,2-a]pyrazin-8-yl]amino]-2-methylphenyl]-[4-[(2R)-piperazine-2-carbonyl]piperazin-1-yl]methanone; hydrochloride], the IC90 was 530 nM.
`Cc1cc(Nc2nccn3c(-c4ccc(OC(F)F)cc4)cnc23)ccc1C(=O)N1CCN(C(=O)C2(N)CCNCC2)CC1` [Example 509, [4-(4-aminopiperidine-4-carbonyl)piperazin-1-yl]-[4-[[3-[4-(difluoromethoxy)phenyl]imi-dazo[1,2-a]pyrazin-8-yl]amino]-2-methylphenyl]methanone; hy-drochloride] was tested, and the IC90 was 540 nM.
With `Cc1cc(Nc2nccn3c(-c4ccc(OC(F)F)cc4)cnc23)ccc1C(=O)N1CCN(C(=O)[C@H]2CCNC[C@H]2O)CC1` [Example 511, [4-[[3-[4-(difluoromethoxy)phenyl]imi-dazo[1,2-a]pyrazin-8-yl]amino]-2-methylphenyl]-[4-[(3S,4S)-3-hydroxypiperidine-4-carbonyl]piperazin-1-yl]methanone] the IC90 was 560 nM.
Work on `Cc1cc(Nc2nccn3c(-c4ccc(OC(F)F)cc4)cnc23)ccc1C(=O)N1CCN(C(=O)[C@H]2NCC[C@H]2O)CC1` [Example 512, [4-[[3-[4-(difluoromethoxy)phenyl]imi-dazo[1,2-a]pyrazin-8-yl]amino]-2-methylphenyl]-[4-[(2S,3R)-3-hydroxypyrrolidine-2-carbonyl]piperazin-1-yl]methanone; hydrochloride] yielded an IC90 of 570 nM.
`Cc1cc(Nc2nccn3c(-c4ccc(OC(F)F)cc4)cnc23)ccc1C(=O)N1CCN(C(=O)[C@@H](N)CCCN)CC1` [Example 513, (2S)-2,5-diamino-1-[4-[4-[[3-[4-(difluoromethoxy)phenyl]imi-dazo[1,2-a]pyrazin-8-yl]amino]-2-methylbenzoyl]piperazin-1-yl]pentan-1-one; hydrochloride] showed an IC90 of 610 nM.
Molecule `COC(=O)C[C@H](N)C(=O)N1CCN(C(=O)c2ccc(Nc3nccn4c(-c5ccc(OC(F)F)cc5)cnc34)cc2C)CC1` [Example 514, methyl (3S)-3-amino-4-[4-[4-[[3-[4-(difluoromethoxy)phenyl]imi-dazo[1,2-a]pyrazin-8-yl]amino]-2-methylbenzoyl]piperazin-1-yl]-4-oxobutanoate; hydrochloride] has an IC90 of 630 nM.
With `COc1ccc(-c2cnc3c(Nc4ccc(C(=O)N5CCN(C(=O)N6CCN[C@H](C(=O)O)C6)CC5)c(C)c4)nccn23)c(F)c1F` [Example 515, (2S)-4-[4-[4-[[3-(2,3-difluoro-4-methoxyphenyl)imidazo[1,2-a]pyrazin-8-yl]amino]-2-methylbenzoyl]piperazine-1-carbonyl]piperazine-2-carboxylic acid; formic acid] the IC90 was 650 nM.
`Cc1cc(Nc2nccn3c(-c4ccc(OC(F)F)cc4)cnc23)ccc1C(=O)N1CCN(C(=O)[C@@H]2CCNC[C@@H]2O)CC1` [Example 516, [4-[[3-[4-(difluoromethoxy)phenyl]imi-dazo[1,2-a]pyrazin-8-yl]amino]-2-methylphenyl]-[4-[(3R,4R)-3-hydroxypiperidine-4-carbonyl]piperazin-1-yl]methanone] gave an IC90 of 650 nM.
For `Cc1cc(Nc2nccn3c(-c4ccc(OC(F)F)cc4)cnc23)ccc1C(=O)N1CCN(C(=O)C2(C#N)CCNCC2)CC1` [Example 517, 4-[4-[4-[[3-[4-(difluoromethoxy)phenyl]imi-dazo[1,2-a]pyrazin-8-yl]amino]-2-methylbenzoyl]piperazine-1-carbonyl]piperidine-4-carbonitrile; hydrochloride], the IC90 was 660 nM.
For `Cc1cc(Nc2nccn3c(-c4ccc(OC(F)F)cc4)cnc23)ccc1C(=O)N1CCN(C(=O)N2CCNCC2)CC1` [Example 518, [4-[[3-[4-(difluoromethoxy)phenyl]imi-dazo[1,2-a]pyrazin-8-yl]amino]-2-methylphenyl]-[4-(piperazine-1-carbonyl)piperazin-1-yl]methanone; hydrochloride], the IC90 was 170 nM.
`Cc1cc(Nc2nccn3c(-c4ccc(OC(F)F)cc4)cnc23)ccc1C(=O)N1CCN(C(=O)CCN)CC1` [Example 519, 3-amino-1-[4-[4-[[3-[4-(difluoromethoxy)phenyl]imi-dazo[1,2-a]pyrazin-8-yl]amino]-2-methylbenzoyl]piperazin-1-yl]propan-1-one; hydrochloride] gave an IC90 of 410 nM.
`Cc1cc(Nc2nccn3c(-c4ccc(OC(F)F)cc4)cnc23)ccc1C(=O)N1CCN(C(=O)NCCN(C)C)CC1` [Example 520, 4-[4-[[3-[4-(difluoromethoxy)phenyl]imi-dazo[1,2-a]pyrazin-8-yl]amino]-2-methylbenzoyl]-N-[2-(dimethylamino)ethyl]pipera-zine-1-carboxamide] gave an IC90 of 310 nM.
